Read-outs that look alike come from different tables or passages of the source.
How the values were obtained:
[1] = test system: L1210 cells; assay: Inhibition of growth of L1210 cells in culture (growth fraction); assay type: cell-based, murine; conditions: for stereospecificity result with 10 μM copper sulfate: 10 μM instead of 50 μM copper; for potentiation of SMETH by other metal ions: 10 μM; for protection from growth inhibition by copper-SMETH: copper-SMETH 15 and 30 μM; for IC50: potentiation of growth inhibition by DL-SMETH 75 or 100 μM, estimated by interpolation, read-out: Conc. for 50% further inhibition; for activity at 50 µM: L1210, L-SMETH 50 μM, read-out: growth (percent of control)
Experimental: Cytotoxicity of SMETH was assessed as follows. Cells were harvested at mid-log phase (8-10×10^5 cells/ml) washed with fresh growth medium and resuspended at 1×10^5 cells per ml as determined by a model ZBI Coulter Counter (Coulter Electronics, Hialeah, Fla.). Suspensions (7 ml) were added to 25 cm^2 Corning flasks, and SMETH, 20 mM in water, with or without copper sulfate, 2 mM in water were added as dilutions in water at no greater than 10 μl/ml of the cell suspension.
(§1) Cells were grown at 37° C. for designated times in tightly stoppered flasks and cell density was determined as indicated above. Cell volume distribution was monitored with a C1000 Channelyzer with standard size latex particles (Coulter) as reference. The results are expressed as growth fraction (N--No/No) or as percent growth fraction compared to appropriate controls.
(The cells also were incubated for 40 hours).
1 with S-(methylthio)-DL-homocysteine DL-SMETH, (See curve .smallcircle.--.smallcircle. in FIG. 4) and with the pure L-enantiomorph, L-SMETH, (See curve -- in FIG. 4).

[2] = test system: L1210 cells; assay: Cell volume of L1210 cells (Channelyzer); assay type: cell-based, murine; conditions: growth inhibition
Experimental: as §1
(To obtain the data in FIG. 5, the cells were incubated with S-(methylthio)-L-homocysteine 15 μM, (curve .smallcircle.--.smallcircle.) and 30 μM (curve -- )together with their corresponding concentrations of copper sulfate). […] To obtain the data in FIG. 6, the cells were incubated for 14 hours in the medium described in the above section entitled Growth And Its Inhibition In Cell Culture, but containing only 1 mM glutamine, 1/2 the normal concentration. […] At the end of the incubation, the cell density in the inhibited culture was determined, and &he entire population centrifuged for analysis. An aliquot containing an equal number of cells from the control culture was removed for comparison, and both samples processed and analyzed as described in the above section entitled Analysis of Nucleoside Triphosphate Pools. […]
To obtain the data in FIG. 7, cells were incubated under standard conditions with S-(methylthio)-L -homocysteine and copper sulfate, each 15 μM, and cell volume monitored during the course of the incubation. […]

[3] = test system: L1210 cells in primary culture; assay: Growth of L1210 cells in primary culture (obtained directly from the mouse) with copper; assay type: cell-based
Experimental: (The cells also were incubated for 40 hours). (See FIG. 3 of Mohindru, A., Fisher, J. M., and Rabinovitz, M. "2,9-Dimethyl-1,10-phenanthroline (neocuproine): A Potent, Copper-dependent Cytotoxin With Anti-tumor Activity.)" A concentration of 10 μM was more than adequate as a potentiating dose, but at this concentration other metal ions (Zn^++, Mn^++, CO^++, Ni^++, Cr^+++) were ineffective. […] Such cells fail to grow unless supplemented with an appropriate mercaptan or disulfide (See curve .smallcircle.--.smallcircle. in FIG. 3). […] Thus, both the organic and inorganic moieties of this invention show high specificity in this inhibition.

[4] = test system: endothelial cell; conditions: via copper catalyzed hydrogen peroxide generation; cited from earlier work
[5] = test system: methionine metabolism; conditions: via its adenosyl derivative; cited from earlier work
[6] = test system: lymphoblasts; conditions: with added adenosine and deoxycoformycin; cited from earlier work
[7] = test system: cellular methylations; conditions: cited from earlier work
[8] = test system: purine biosynthesis; conditions: literature; cited from earlier work
[9] = Cecil and McPhee; cited from earlier work

In the case of CSSCCC(N)C(=O)O (racemic) [DL-SMETH, S-(methylthio)-DL-homocysteine], the “inhibition of cellular proliferation” value [1] is reported as “potent inhibitor of cellular proliferation”, the “stereospecificity result with 10 μM copper sulfate” value [1] is reported as “nearly identical results” and the “range of inhibitory concentration of SMETH with copper ion” value ([1]; 40 hours, copper ion present) is reported as “both reduced and narrowed in the presence of copper ion”. The percent inhibition ([1]; DL-SMETH 75 μm alone) was 46%, the percent inhibition ([1]; DL-SMETH 75 μm plus adenosine 10 μm, deoxycoformycin 20 μm) was 46% and the minimal effective concentration ([1]; Mus musculus, L1210, 40 hours, without copper, read-out: threshold level) was 25 µM. For the same compound, the “cytotoxicity to L1210 cells” value ([1]; alone, 40 hours) was “cytotoxic to L1210 cells in culture when present at a broad range of micromolar concentrations”, the “relative activity of racemic form (vs D-SMETH as printed)” value ([1]; copper ion 50 μM) was “half as active as D-SMETH” and the “effect of copper ion on inhibition by SMETH” value ([1]; threshold SMETH 25 μM with micromolar copper ion, 40 hours) was “completely inhibitory concentration”. The “cell volume change over a two day period” value [2] was “progressive increase in cell volume”.

With CSSC[C@H](N)C(=O)O [4-thiamethionine, S-(methylthio)-L-cysteine] the “growth support with copper ion” value ([3]; 4TM 50 μM) was “supported growth which was independent of copper ion concentration”, the “cytotoxicity in the presence of copper” value ([3]; L1210 primary culture) was “not cytotoxic in the presence of copper” and the “protection from growth inhibition by copper” value ([3]; L1210 primary culture) was “protected L1210 cells in primary culture from growth inhibition by copper”.

In the case of Nc1ncnc2c1ncn2[C@@H]1O[C@H](CO)[C@@H](O)[C@H]1O [Adenosine], the toxicity of adenosine ([1]; 10 μM alone) is reported as “not toxic to L1210 cells”, the “toxicity of adenosine with L-homocysteinethiolactone” value ([1]; 10 μM with non-toxic concentration of L-homocysteinethiolactone) is reported as “toxic when added together with a non-toxic concentration of L-homocysteinethiolactone” and the “effect of adenosine on SMETH potency” value ([1]; toxic dose of SMETH) is reported as “did not increase the potency of a toxic dose of SMETH”.

For [Co+2] [CO^++], the “potentiation of SMETH by other metal ions” value (shortened to “potentiation of SMETH”) [1] was “ineffective”.

With [Cr+3] [Cr^+++] the “potentiation of SMETH” value [1] was “ineffective”.

With Nc1ccn([C@@H]2O[C@H](CO)[C@@H](O)[C@H]2O)c(=O)n1 [Cytidine] the “protection from growth inhibition by copper-SMETH” value [1] was “protected the cells from growth inhibition, and this protection was non-competitive”.

With CSSCC[C@@H](N)C(=O)O [D-SMETH] the “activity of D-SMETH” value ([1]; 50 μM with 50 μM copper ion) was “completely inactive”.

In the case of NC(=O)CC[C@H](N)C(=O)O [Glutamine], the “protection against SMETH and SMETH plus Cu++” value ([1]; glutamine, millimolar concentrations) is reported as “protected cells against SMETH and SMETH plug Cu^++”.

For N[C@@H](CCS)C(=O)O [Homocysteine], the endothelial cell damage [4] is given as “promote endothelial cell damage” and the “toxicity by blocking methionine metabolism” value [5] is given as “toxic by blocking methionine metabolism”.

In the case of OCCSSCCO [Hydroxyethyl Disulfide (HEDS), Hydroxyethyl Disulfide], the “growth promotion and its inhibition by copper” value ([3]; high copper concentrations) is reported as “promoted growth, but this was inhibited by high copper concentrations”.

For N[C@H]1CCSC1=O [L-Homocysteine Thiolactone], the percent inhibition ([1]; L-homocysteine thiolactone 200 μM plus adenosine 10 μM, deoxycoformycin 20 μM) is listed as 39%, the inhibition at 200 µM ([1]; Mus musculus, L1210, L-homocysteine thiolactone 200 μM alone, read-out: percent inhibition) is listed as 5% and the growth block [6] is listed as “can block growth”.

CC(C)C[C@H](N)C(=O)O [L-Leucine] gave an IC50 [1] of 1000 µM.

For CSCC[C@H](N)C(=O)O [L-Methionine], the IC50 [1] was 2000 µM.

CCCC[C@H](N)C(=O)O [L-Norleucine] gave an IC50 [1] of 2500 µM.

In the case of CSSCC[C@H](N)C(=O)O [L-SMETH, S-(methylthio)-L-homocysteine], the “stereospecificity result with 10 μM copper sulfate” value [1] is reported as “nearly identical results”, the activity at 50 µM ([1]; Mus musculus, glutamine 0.5 mM) is reported as 15% and the activity at 50 µM ([1]; Mus musculus, glutamine 1.0 mM) is reported as 31%. The activity at 50 µM ([1]; Mus musculus, glutamine 2.0 mM) was 58% and the activity at 50 µM ([1]; Mus musculus, glutamine 4.0 mM) was 98%.

With [Mn+2] [Mn^++] the “potentiation of SMETH” value [1] was “ineffective”.

In the case of [Ni+2] [Ni^++], the “potentiation of SMETH” value [1] is reported as “ineffective”.

With CCSC[C@H](N)C(=O)O [S-Ethyl-L-cysteine] the IC50 [1] was 1000 µM.

For Nc1ncnc2c1ncn2[C@@H]1O[C@H](CSCC[C@H](N)C(=O)O)[C@@H](O)[C@H]1O [S-adenosylhomocysteine], the “inhibition of cellular methylations” value [7] is listed as “potent inhibitor of cellular methylations” and the “inhibition of cellular methylations” value ([7]; listed as Adenosylhomocysteine) is listed as “potent inhibitor of cellular methylation processes”.

In the case of O=c1ccn([C@@H]2O[C@H](CO)[C@@H](O)[C@H]2O)c(=O)[nH]1 [Uridine], the “protection from growth inhibition by copper-SMETH” value [1] is reported as “ineffective in such protection”.

For [Zn+2] [Zn^++], the “potentiation of SMETH” value [1] was “ineffective”.

In the case of N[C@H](C(=O)O)[C@@H]1CC(Cl)=NO1 [acivicin, (alphaS,5S)-alpha-amino-3-chloro-4,5-dihydro-5-isoxazoleacetizacid], the “sites blocked in purine biosynthesis” value [8] is given as “also block some sites in purine biosynthesis”.

In the case of [N-]=[N+]=CC(=O)OC[C@H](N)C(=O)O [azaserine], the “sites blocked in purine biosynthesis” value [8] is listed as “also block some sites in purine biosynthesis”.

For O=S(=O)([O-])[O-].[Cu+2] [copper ion, copper sulfate], the “toxicity of the ion itself” value ([1]; copper ion alone, at much higher levels than micromolar potentiating levels) was “non -toxic itself at much higher levels” and the “potentiating dose of copper ion” value ([1]; with SMETH, 40 hours, "more than adequate") was ≤ 10 µM.

For [N-]=[N+]=CC(=O)CC[C@H](N)C(=O)O [diazo-oxo-norleucine, 6-diazo-5-oxo-norleucine], the “sites blocked in purine biosynthesis” value [8] is listed as “also block some sites in purine biosynthesis”.

With Nc1nc2c(ncn2[C@@H]2O[C@H](CO)[C@@H](O)[C@H]2O)c(=O)[nH]1 [guanosine] the “protection from growth inhibition by copper-SMETH” value [1] was “ineffective in such protection”.

In the case of N[C@@H](CCSSCC[C@H](N)C(=O)O)C(=O)O [homocystine], the “rate of reaction with silver ion relative to cystine” value [9] is listed as 267 times.

DL-Isopropionine showed an IC50 [1] of 2000 µM.
